We go through 10 compounds from ChEMBL document CHEMBL1201862, “PubChem BioAssay data set” (2004).

Assay in all cases: DTP human tumour cell line panel, 48 h
Experiment [1] concerns SNB-19.
For experiment [2], the system named is KM12.
Experiment [3] has as its system DU-145.
Experiment [4] deals with NCI-H460.
For experiment [5], the system named is SR.
Experiment [6] relates to U-251.
Experiment [7] concerns CCRF-CEM.
Experiment [8] relates to CAKI-1.
Experiment [9] deals with NCI-H226.
The subject of experiment [10] is SN12C.
In experiment [11] the test system is COLO 205.
Experiment [12] relates to A498.
In experiment [13] the test system is MDA-MB-231.
Experiment [14] relates to Malme-3M.
Experiment [15] relates to NCI/ADR-RES.
The test system of experiment [16] is HCT-15.
The subject of experiment [17] is SK-OV-3.
Experiment [18] concerns Hs-578T.
In experiment [19] the test system is SW-620.
Experiment [20] concerns OVCAR-8.

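Compound exposure: 48 hours, 5 concentrations, 96-well plates. The concentration for 50% growth inhibition is given as GI50.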 The source made the active and inactive calls. No stated cut-off is given here; in the data, active = GI50 up to about 1.1 µM and inactive = higher.

One may read the GI50 as the concentration giving 50% growth inhibition. Consider `Oc1ncc(Cl)c(O)n1`, for which the GI50 in experiment [1], in experiment [2], in experiment [3], in experiment [4], in [5] and in experiment [6] was > 100 µM (inactive) in each case. The GI50 in [7], in [8], in experiment [9], in experiment [10], in [11] and in [12] was > 100 µM (inactive) each time. The GI50 in [13] was > 100 µM (inactive); in experiment [14], > 100 µM (inactive); in experiment [15], > 100 µM (inactive); in experiment [16] it was over 100 µM; in [17], > 100 µM (inactive); in [18], > 100 µM (inactive). Moreover, the GI50 in experiment [19] and in [20] was > 100 µM (inactive) throughout.
As for `O=C1N/C(=N/N=C\C(O)C(O)C(O)C(O)CO)N/C1=C\c1ccc(Cl)cc1` (stereo not given), the GI50 is 2.73 µM (inactive) in experiment [1]; 22.1 µM (inactive) in experiment [2]; 15.2 µM (inactive) in experiment [3]; 15.7 µM (inactive) in experiment [4]; 4.04 µM (inactive) in [5]; 2.15 µM (inactive) in [6]. Besides, the GI50 was 4.89 µM (inactive) in experiment [7]; > 57.7 µM (inactive) in experiment [8]; 3 µM (inactive) in [9]; 1.51 µM (inactive) in experiment [10]; 8 µM (inactive) in [11]; 11.5 µM (inactive) in [12]. The GI50 in experiment [13] was 4.81 µM (inactive); in [14] it was 2.76 µM (inactive); in experiment [15], > 100 µM (inactive); in experiment [16] it was over 86.5 µM; in [17], 16.6 µM (inactive); in experiment [18], 2.48 µM (inactive). Further, the values for the GI50 in experiment [19] and in experiment [20] were 8.87 µM (inactive) and 1.53 µM (inactive), respectively.
Regarding `CC1=C(C(N)=O)C(c2ccncc2)C(C#N)=C2SCC(=O)N12` (stereo not given), the GI50 in [1], in experiment [2], in [3], in [4], in experiment [5] and in experiment [6] was > 100 µM (inactive) in each case. Further, the GI50 in experiment [7], in [8], in experiment [9], in [10], in experiment [11] and in experiment [12] was > 100 µM (inactive) each time. Further, the GI50 in experiment [13] is > 100 µM (inactive); in experiment [14], > 100 µM (inactive); in experiment [15], > 100 µM (inactive); in [16], over 100 µM; in experiment [17] it was > 100 µM (inactive); in experiment [18] it was > 100 µM (inactive). Moreover, the GI50 in [19] and in experiment [20] was > 100 µM (inactive) in each case.
As for `Cc1cc(O)c2c(c1)C(=O)C(c1c(C)cc3c(c1O)C(=O)C1OC1C3=O)=CC2=O` (stereo not given), the GI50 in [1] is 21.5 µM (inactive); in experiment [2], 13.7 µM (inactive); in [3], 6.7 µM (inactive); in experiment [4], 7.87 µM (inactive); in experiment [5] it was 0.327 µM (active); in experiment [6], 6.9 µM (inactive). Further, the GI50 in [7] is 0.0667 µM (active); in experiment [8] it was 0.796 µM (active); in [9], 16.1 µM (inactive); in experiment [10], 3.44 µM (inactive); in experiment [11] it was 0.561 µM (active); in [12] it was 6.4 µM (inactive). Moreover, the GI50 in experiment [13] is 2.03 µM (inactive); in experiment [14], 1.73 µM (inactive); in experiment [15], 2.77 µM (inactive); in [16], 1.16 µM; in [17], 17.7 µM (inactive); in experiment [18], 4.16 µM (inactive). The GI50 is 1.42 µM (inactive) in experiment [19] and 4.11 µM (inactive) in experiment [20].
Take `C=C1C(=O)OC2/C=C(\CO)C3OC3C3OC3(C)CC(OC(=O)/C(=C/C)COC(C)=O)C12` (stereo not given): the GI50 was 15.1 µM (inactive) in experiment [1]; 7.31 µM (inactive) in experiment [2]; 17.1 µM (inactive) in experiment [3]; 12.2 µM (inactive) in experiment [4]; 2.09 µM (inactive) in experiment [5]; 5 µM (inactive) in experiment [6]. Moreover, the GI50 in experiment [7] is 2.29 µM (inactive); in experiment [8] it was 1.95 µM (inactive); in [9] it was 21.6 µM (inactive); in [10], 3.2 µM (inactive); in experiment [11] it was 1.63 µM (inactive); in experiment [12], 13.8 µM (inactive). In addition, the GI50 was 6.04 µM (inactive) in [13]; 1.67 µM (inactive) in experiment [14]; 12.1 µM (inactive) in experiment [15]; 2.12 µM in [16]; 18.2 µM (inactive) in experiment [17]; 3.7 µM (inactive) in experiment [18]. The values for the GI50 in experiment [19] and in [20] were 1.35 µM (inactive) and 2.79 µM (inactive), respectively.
Regarding `COC(=O)c1ccccc1CC(Cc1ccc2c(c1)CCC2)C(=O)OC` (stereo not given), the GI50 is > 100 µM (inactive) in experiment [1]; 33.6 µM (inactive) in experiment [2]; > 100 µM (inactive) in [3]; > 100 µM (inactive) in experiment [4]; 36.9 µM (inactive) in experiment [5]; > 100 µM (inactive) in experiment [6]. Further, the GI50 in experiment [7] was 47.3 µM (inactive); in experiment [8], > 100 µM (inactive); in [9], 57.5 µM (inactive); in experiment [10], > 100 µM (inactive); in experiment [11], > 100 µM (inactive); in [12] it was > 100 µM (inactive). For the same compound, the GI50 in experiment [13] was > 100 µM (inactive); in experiment [14], 33.3 µM (inactive); in [15], > 100 µM (inactive); in experiment [16], over 100 µM; in [17] it was > 100 µM (inactive); in [18], > 100 µM (inactive). Moreover, the GI50 in [19] and in [20] was > 100 µM (inactive) each time.
On to `S=c1sc2nc(Cl)nc(Cl)c2s1`, for which the GI50 in experiment [1] was 17.9 µM (inactive); in experiment [2] it was 7.85 µM (inactive); in [3] it was 16 µM (inactive); in [4], 14.2 µM (inactive); in experiment [5], 1.04 µM (active); in experiment [6], 7.8 µM (inactive). Moreover, the 50% growth inhibitory concentration (GI50) was 0.598 µM (active) in experiment [7]; 7.52 µM (inactive) in experiment [8]; 17.5 µM (inactive) in experiment [9]; 14.5 µM (inactive) in [10]; 7.18 µM (inactive) in experiment [11]; 18 µM (inactive) in experiment [12]. Moreover, the GI50 in [13] is 9.02 µM (inactive); in [14], 8.83 µM (inactive); in experiment [15], 11 µM (inactive); in [16], 13.2 µM; in [17], 17.7 µM (inactive); in [18], 24 µM (inactive). The GI50 in experiment [19] is 6.85 µM (inactive); in [20] it was 9.33 µM (inactive).
With `CC1OC(OC2C(O[C@@H]3C[C@@H]4CC[C@@H]5[C@H](CC[C@]6(C)C7C(C[C@@H]56)O[C@]5(CC[C@@H](C)CO5)[C@H]7C)[C@@]4(C)C[C@H]3O)OC(CO)C(O)C2O)C(O)C(O)C1O` (stereo not given in full), the GI50 in experiment [1] was 2.41 µM (inactive); in [2] it was 2.32 µM (inactive); in experiment [3], 1.84 µM (inactive); in [4], 1.92 µM (inactive); in experiment [5], 2.16 µM (inactive); in experiment [6], 1.68 µM (inactive). The GI50 in experiment [7] was 1.93 µM (inactive); in [8] it was 2.06 µM (inactive); in experiment [9], 2.84 µM (inactive); in experiment [10] it was 1.71 µM (inactive); in experiment [11] it was 1.85 µM (inactive); in experiment [12], 2.3 µM (inactive). Moreover, the GI50 in experiment [13] is 1.78 µM (inactive); in experiment [14] it was 1.82 µM (inactive); in experiment [15] it was 1.94 µM (inactive); in [16] it was 1.87 µM; in experiment [17] it was 1.89 µM (inactive); in [18], 2.54 µM (inactive). Moreover, the GI50 was 1.93 µM (inactive) in experiment [19] and 1.86 µM (inactive) in [20].
With `O=C(N/N=C/c1ccc2c(c1)OCO2)Nc1ccccc1Cl`, the GI50 is 3.7 µM (inactive) in [1]; 0.598 µM (active) in experiment [2]; 2.02 µM (inactive) in experiment [3]; 0.65 µM (active) in [4]; 0.22 µM (active) in experiment [5]; 2.68 µM (inactive) in experiment [6]. For the same compound, the GI50 in [7] was 1.13 µM (inactive); in experiment [8], 4.18 µM (inactive); in [9], 4.19 µM (inactive); in experiment [10], 0.847 µM (active); in experiment [11], 0.957 µM (active); in [12], 1.95 µM (inactive). Moreover, the GI50 in [13] is 4.7 µM (inactive); in experiment [14], 0.946 µM (active); in [15] it was 0.335 µM (active); in experiment [16], 0.418 µM; in experiment [17], 2.77 µM (inactive); in experiment [18], 1.66 µM (inactive). Besides, the 50% growth inhibitory concentration (GI50) in experiment [19] is 0.708 µM (active); in experiment [20] it was 2.56 µM (inactive).
For the compound `COC(=O)CNC(=O)CCC(C)[C@H]1CCC2C3C(C[C@H](OC(C)=O)[C@@]21C)[C@@]1(C)CCC2(C[C@H]1C[C@H]3OC(C)=O)OOC1(CCCCC1)OO2` (stereo not given in full), the GI50 in experiment [1] is 4.63 µM (inactive); in experiment [2], 2.01 µM (inactive); in [3], 2.34 µM (inactive); in experiment [4] it was 1.76 µM (inactive); in experiment [5] it was 1.24 µM (inactive); in experiment [6], 1.76 µM (inactive). Also, the GI50 in experiment [7] was 2.1 µM (inactive); in [8], 2.02 µM (inactive); in experiment [9], 2.1 µM (inactive); in [10], 1.59 µM (inactive); in experiment [11], 1.91 µM (inactive); in [12], 17.2 µM (inactive). Besides, the GI50 in experiment [13] was 1.64 µM (inactive); in [14], 3.37 µM (inactive); in [15], 2.17 µM (inactive); in [16], 2.7 µM; in experiment [17], 12.4 µM (inactive); in experiment [18], 2.72 µM (inactive). In addition, the GI50 was 2.24 µM (inactive) in experiment [19] and 1.82 µM (inactive) in experiment [20].
